Data taken from patent publication US20260232670A1, “TYRO3 SELECTIVE INHIBITORS AND USES THEREOF” (THE UNIVERSITY OF NORTH CAROLINA AT CHAPEL HILL, priority 2023, published 2026).

Experiments:
MERTK = target: T1, MERTK (Homo sapiens, UniProt Q12866); assay: Microfluidic capillary electrophoresis (MCE) kinase activity assay, Mer; format: biochemical
T1 sequence (Q12866 21-999): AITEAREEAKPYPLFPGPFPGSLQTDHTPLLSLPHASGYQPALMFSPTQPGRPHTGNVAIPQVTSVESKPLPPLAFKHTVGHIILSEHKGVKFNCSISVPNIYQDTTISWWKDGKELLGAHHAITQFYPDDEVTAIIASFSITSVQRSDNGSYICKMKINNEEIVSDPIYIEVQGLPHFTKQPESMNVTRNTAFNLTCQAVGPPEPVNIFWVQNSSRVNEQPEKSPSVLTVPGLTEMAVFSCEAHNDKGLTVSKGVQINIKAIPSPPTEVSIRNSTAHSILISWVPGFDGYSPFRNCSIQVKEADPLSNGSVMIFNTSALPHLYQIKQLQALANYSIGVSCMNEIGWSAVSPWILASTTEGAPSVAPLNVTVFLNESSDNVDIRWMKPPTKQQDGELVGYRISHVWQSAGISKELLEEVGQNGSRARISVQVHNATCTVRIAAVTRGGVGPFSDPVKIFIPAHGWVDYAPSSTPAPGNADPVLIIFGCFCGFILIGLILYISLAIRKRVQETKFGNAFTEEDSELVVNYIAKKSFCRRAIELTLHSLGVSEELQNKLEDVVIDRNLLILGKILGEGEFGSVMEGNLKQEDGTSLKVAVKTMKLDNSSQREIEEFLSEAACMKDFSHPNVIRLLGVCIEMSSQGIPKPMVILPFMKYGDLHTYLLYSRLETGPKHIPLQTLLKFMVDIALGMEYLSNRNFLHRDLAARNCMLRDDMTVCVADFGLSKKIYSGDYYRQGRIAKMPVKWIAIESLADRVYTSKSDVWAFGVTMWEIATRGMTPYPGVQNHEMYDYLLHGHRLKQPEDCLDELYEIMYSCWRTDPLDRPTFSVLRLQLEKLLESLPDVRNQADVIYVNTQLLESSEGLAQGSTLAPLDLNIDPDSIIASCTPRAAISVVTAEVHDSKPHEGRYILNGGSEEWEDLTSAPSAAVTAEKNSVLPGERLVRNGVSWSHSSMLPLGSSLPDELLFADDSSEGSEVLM
Protocol: (§1) All reactions were terminated by addition of 20 μL of 70 mM EDTA. After a 180 min incubation, phosphorylated and unphosphorylated substrate peptides (Table 6) were separated in buffer supplemented with 1× CR-8 on a LabChip EZ Reader equipped with a 12-sipper chip. Data were analyzed using EZ Reader software.

TYRO3 = target: T2, TYRO3 (Homo sapiens, UniProt Q06418); assay: Microfluidic capillary electrophoresis (MCE) kinase activity assay, Tyro3; format: biochemical
T2 sequence (Q06418 41-890): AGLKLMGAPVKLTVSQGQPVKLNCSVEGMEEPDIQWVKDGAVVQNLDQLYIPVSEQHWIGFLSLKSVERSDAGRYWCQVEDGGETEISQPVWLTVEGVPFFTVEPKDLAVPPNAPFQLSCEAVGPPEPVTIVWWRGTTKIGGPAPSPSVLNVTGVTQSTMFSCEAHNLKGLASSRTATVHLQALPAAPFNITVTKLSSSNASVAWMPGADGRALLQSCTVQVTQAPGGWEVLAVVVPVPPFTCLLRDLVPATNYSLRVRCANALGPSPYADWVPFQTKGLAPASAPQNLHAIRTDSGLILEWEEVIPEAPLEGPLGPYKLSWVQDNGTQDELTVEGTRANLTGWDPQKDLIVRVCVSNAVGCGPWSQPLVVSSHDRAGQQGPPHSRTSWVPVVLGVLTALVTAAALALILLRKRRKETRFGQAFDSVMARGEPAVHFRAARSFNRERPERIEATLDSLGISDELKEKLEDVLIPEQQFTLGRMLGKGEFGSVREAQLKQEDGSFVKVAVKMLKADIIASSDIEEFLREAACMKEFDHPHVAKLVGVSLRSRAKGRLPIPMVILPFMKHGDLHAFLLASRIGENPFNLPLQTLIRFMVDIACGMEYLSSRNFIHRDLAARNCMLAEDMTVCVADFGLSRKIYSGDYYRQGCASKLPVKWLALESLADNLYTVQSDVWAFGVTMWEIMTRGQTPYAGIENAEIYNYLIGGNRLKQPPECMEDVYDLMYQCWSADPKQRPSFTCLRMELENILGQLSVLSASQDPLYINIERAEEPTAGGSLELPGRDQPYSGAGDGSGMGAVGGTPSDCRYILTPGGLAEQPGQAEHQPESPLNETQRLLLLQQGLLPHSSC
Protocol: as §1

SMILES	IC50 (MERTK; Table 2, MCE assay, ATP at Km) [µM]	IC50 (TYRO3; Table 2, MCE assay, ATP at Km) [µM]	IC50 (TYRO3; Table 10) [µM]	also measured
CN1CCN(Cc2ccc(-c3cn([C@H]4CC[C@H](O)CC4)c4nc(Nc5cc(Cl)cc(C(F)(F)F)c5)ncc34)cc2)CC1 [Compound 148]	0.01 to 0.1	< 0.01		
CN1CCN(Cc2ccc(-c3cn([C@H]4CC[C@H](O)CC4)c4nc(Nc5cc(F)cc(C(F)(F)F)c5)ncc34)cc2)CC1 [Compound 149]	< 0.01	< 0.01		
CC1CCN(Cc2ccc(-c3cn([C@H]4CC[C@H](O)CC4)c4nc(Nc5cc(F)cc(Cl)c5)ncc34)cc2)CC1 [Compound 151]	< 0.01	< 0.01		
CN1CCN(Cc2ccc(-c3cn(C4CCOCC4)c4nc(Nc5cc(F)cc(Cl)c5)ncc34)cc2)CC1 [Compound 160]			< 0.01	IC50 (MERTK; Table 10): < 0.01 µM
CN1CCN(Cc2ccc(-c3cn([C@H]4CC[C@H](NC(=O)OC(C)(C)C)CC4)c4nc(Nc5cc(C(F)(F)F)cc(C(F)(F)F)c5)ncc34)cc2)CC1 [Compound 161]			0.01 to 0.1	
CN1CCN(Cc2ccc(-c3cn([C@H]4CC[C@H](NC(=O)OC(C)(C)C)CC4)c4nc(Nc5cc(F)cc(Cl)c5)ncc34)cc2)CC1 [Compound 163]			0.01 to 0.1	IC50 (MERTK; Table 10): 0.1 to 1 µM
CN1CCN(Cc2ccc(-c3cn([C@H]4CC[C@H](N)CC4)c4nc(Nc5cc(F)cc(Cl)c5)ncc34)cc2)CC1 [Compound 164]			< 0.01	IC50 (MERTK; Table 10): < 0.01 µM
CN1CCN(Cc2ccc(-c3cn(C4CC(CO)(CO)C4)c4nc(Nc5cc(C(F)(F)F)cc(C(F)(F)F)c5)ncc34)cc2)CC1 [Compound 165]			< 0.01	IC50 (MERTK; Table 10): 1 to 30 µM
CN1CCN(Cc2ccc(-c3cc(C4CCC5(CC4)OCCO5)n4nc(Nc5cc(F)cc(Cl)c5)ncc34)cc2)CC1 [Compound 170, N-(3-chloro-5-fluorophenyl)-5-(4-((4-methylpiperazin-1-yl)methyl)phenyl)-7-(1,4-dioxaspiro[4.5]decan-8-yl)pyrrolo[2,1-f][1,2,4]triazin-2-amine]				IC50 (MERTK; Table 11): 0.01 to 0.1 µM; IC50 (TYRO3; Table 11): < 0.01 µM
CN1CCN(Cc2ccc(-c3cc(C4CCC(=O)CC4)n4nc(Nc5cc(F)cc(Cl)c5)ncc34)cc2)CC1 [Compound 171, 4-(2-((3-chloro-5-fluorophenyl)amino)-5-(4-((4-methylpiperazin-1-yl)methyl)phenyl)pyrrolo[2,1-f][1,2,4]triazin-7-yl)cyclohexan-1-one]				IC50 (MERTK; Table 11): 0.01 to 0.1 µM; IC50 (TYRO3; Table 11): < 0.01 µM
CN1CCN(Cc2ccc(-c3cn([C@H]4CC[C@H](O)CC4)c4nc(Nc5cc(F)cc(Cl)c5)ncc34)cn2)CC1 [Compound 172]				IC50 (MERTK; Table 12): < 0.01 µM; IC50 (TYRO3; Table 12): < 0.01 µM
CN1CCN(Cc2ccc(-c3cn([C@H]4CC[C@H](O)CC4)c4nc(Nc5cc(C(F)(F)F)cc(C(F)(F)F)c5)ncc34)cn2)CC1 [Compound 173]				IC50 (MERTK; Table 12): 0.1 to 1 µM; IC50 (TYRO3; Table 12): < 0.01 µM
CN1CCN(Cc2ccc(-c3cn([C@H]4CC[C@H](O)CC4)c4nc(Nc5ccsc5)ncc34)cc2)CC1 [Compound 174]	< 0.01	< 0.01		
CN1CCN(Cc2ccc(-c3cn([C@H]4CC[C@H](O)CC4)c4nc(Nc5cncc(Cl)c5)ncc34)cc2)CC1 [Compound 175]	< 0.01	< 0.01		
